Where two headings read alike, the source gives them in different places. Where a SMILES comes first, the peptide text is derived from it. Where no end group is shown, it is not given here.
How the values were obtained:
Type in all cases: physicochemical
[1] = Peptide solubility evaluation: dissolution in DMSO, dilution in D5W with or without succinate
Procedure: (§1) In a representative procedure, peptides were weighed and corrected for % peptide content, and then dissolved in DMSO to a concentration of 50 mg/mL. The DMSO/Peptide solution was then diluted with 5 mM sodium succinate in D5W to a 2 mg/mL peptide concentration.
Additional peptide solubility conditions were tested. Peptides CS6709, CS6712, CS6720, CS6726, and CS6783 were weighed at approximately 10 mg each. The peptides were then dissolved in approximately 200 μL USP grade DMSO to obtain a 50 mg/mL concentration for each peptide. […] Additional 50 μL increments of DMSO were added to Peptide CS6709 up to 400 μL; for a total of 600 μL of DMSO.
Based on gross weight and peptide content, 15 mg (net weight) or slightly more of each individual peptide are weighed and 100% USP Grade DMSO […] is added to achieve a final peptide concentration of 50 mg/ml.

[2] = pH of peptide solutions
Procedure: as §1

[3] = Dissolution of peptide in D5W without using DMSO; conditions: small amount of peptide (<1 mg)
[4] = DMSO/D5W, Table 4, Y/N, diluted to 2 mg/ml, read-out: Solubility In DMSO/D5W
[5] = DMSO/D5W/succinate, Table 4, Y/N, read-out: Solubility in DMSO/D5W/Succinate
[6] = Table 4, symbol X not defined, peptides dissolved at 50 mg/ml in 100% DMSO, read-out: Solubility in DMSO
[7] = Table 4, Y/N, diluted to 2 mg/ml, read-out: Solubility In DMSO/D5W

| solubility [1, 4] [µg/mL] | Compound | pH of peptides in DMSO/D5W/5 mM S. Succinate spike [2] | pH of peptides in DMSO/D5W/5 mM Succinate and Hiltonol [2] | other results |
| --- | --- | --- | --- | --- |
| > 2000 | H-LAASGLHGSAWLVPGEQPVSGPHHGKQPAGV-OH [CS6930] |  |  |  |
| > 2000 | H-GKSRGQQAQDRARHAAGAAPARPLGALREQ-OH [CS6938] |  |  |  |
| > 2000 | H-GTYLQGTASALSQSQERPPSVNRVPPSSPSSQE-OH [CS6725] |  |  |  |
| < 2000 | H-DASDFLPDTQLFPHFTELLLPLDPLEGSSV-OH [CS6935] |  |  |  |
| > 2000 | H-KPKKVAGAATPKKSIKRTPKKVKKPATAAGTKK-OH [CS6717] |  |  |  |
| > 2000 | H-FRLIWRSVKNGKSSREQELSWNCSHQVPSLGA-OH [CS6917] |  |  |  |
| > 2000 | H-DMAWRRNSRLYWLIKMVEQWQEQHLPSLSS-OH [CS6943] |  |  |  |
| > 2000 | H-GASRRSSASQGAGSLGLSEEKTLRSGGGP-OH [CS6781] |  |  |  |
| > 2000 | H-EPDQEAVQSSTYKDCNTLHLPTERFSPVR-OH [CS6710] |  |  |  |
| > 2000 | H-PIQVFYTKQPQNDYLHVALVSVFQIHQEAPSSQ-OH [CS6729] |  |  |  |
| > 2000 | H-RGLHSQGLGRGRIAMAQTAGVLRSLEQEE-OH [CS6711] |  |  |  |
| > 2000 | H-SPTEPSTKLPGFDSCGNTEIAERKIKRIYGGFK-OH [CS6720] |  |  | Dissolution directly in D5W without using DMSO [3]: could be dissolved |
| > 2000 | H-DSAVDKGHPNRSALSLTPGLRIGPSGIPQAGLG-OH [CS6726] |  |  | Dissolution directly in D5W without using DMSO [3]: could be dissolved |
| > 2000 | H-PIERVKKNLLKKEYNVSDDSMKLGGNNTSEKAD-OH [CS6721] |  |  |  |
| > 2000 | CC[C@H](C)[C@H](NC(=O)[C@H](CS)NC(=O)[C@H](CC(C)C)NC(=O)[C@@H](N)CC(=O)O)C(=O)N[C@@H](CS)C(=O)N1CCC[C@H]1C(=O)N[C@@H](CCCNC(=N)N)C(=O)N[C@@H](CO)C(=O)N[C@@H](Cc1c[nH]cn1)C(=O)N[C@@H](CCCNC(=N)N)C(=O)NCC(=O)N[C@@H](C)C(=O)N[C@@H](Cc1ccccc1)C(=O)N[C@@H](CCC(N)=O)C(=O)N[C@@H](CC(C)C)C(=O)N[C@@H](CC(C)C)C(=O)N1CCC[C@H]1C(=O)N[C@@H](CO)C(=O)N[C@@H](C)C(=O)N[C@@H](CC(C)C)C(=O)N[C@@H](CC(C)C)C(=O)N[C@H](C(=O)N[C@@H](CCCNC(=N)N)C(=O)N[C@H](C(=O)N[C@@H](CC(C)C)C(=O)N[C@@H](CCC(=O)O)C(=O)NCC(=O)N[C@@H](CO)C(=O)N[C@@H](CC(=O)O)C(=O)N[C@@H](CO)C(=O)O)C(C)C)C(C)C [CS6932] (H-DLCICPRSHRGAFQLLPSALLVRVLEGSDS-OH) |  |  |  |
| > 2000 | H-SKLPYPVAKSGKRALARGPAPTEKTPHSGAQLG-OH [CS6719] |  |  |  |
| > 2000 | H-APALGPGAASVASRCGLDPALAPGGSHMLRA-OH [CS6927] |  |  |  |
| < 2000 | H-VSWGKKVQPIDSILADWNEDIEAFEMMEKD-OH [CS6942] |  |  |  |
| > 2000 | H-LPVFIGNIAVNHAPVSLRPGLGLPPGAPPLVVP-OH [CS6730] |  |  |  |

More lines, now with the values behind:

| Compound | solubility [1, 4] [µg/mL] | pH of peptides in DMSO/D5W/5 mM S. Succinate spike [2] | pH of peptides in DMSO/D5W/5 mM Succinate and Hiltonol [2] | other results |
| --- | --- | --- | --- | --- |
| H-AESAQRQGPLGGGEQSANEF-OH [CS7417] |  | 6.28 | 6.5 | solubility [1]: > 2000 µg/mL; solubility [1, 5]: > 2000 µg/mL |
| H-WDGPPENDMLLKEICGSLIP-OH [CS7432] |  | 6.22 | 6.45 |  |
| H-VAGLAASGLHGSAWLVPGEQPVSGPHHGKQ-OH [CS6931] |  | 6.42 | 6.66 |  |
| H-LTDLPGRIRVAPQQNDLDSPQQISISNAE-OH [CS6709] |  |  |  | Dissolution directly in D5W without using DMSO [3]: could be dissolved; solubility [1, 6]: < 50000 µg/mL |
| H-PPYPYSSPSLVLPTEPHTPKSLQQPGLPS-OH [CS6715] | > 2000 |  |  |  |
| H-AESAQRQGPNGGGEQSANEF-OH [CS7416] |  | 6.31 | 6.54 |  |
| H-GLLSDGSGLGQITWASAEHLQRPGAGAELA-OH [CS6914] | > 2000 |  |  |  |
| H-PLMQTELHQLVPEADPEEMA-OH [CS7430] |  | 6.23 | 6.37 |  |
| H-SHVEKAHITAESAQRQGPNGGGEQSANEF-OH [CS6708] | > 2000 |  |  |  |
| H-VEQGHVRVGPDVVTHPAFLV-OH [CS7427] |  | 6.34 | 6.52 |  |
| H-EDLHLLSVPCPSYKKLPLLIFPSHRRAPLLSA-OH [CS6918] |  |  |  | solubility [1, 7]: > 2000 µg/mL |
| H-LPVFIGNIAVNHAPVSLRPGLGLPPGAPPGTVP-OH [CS7438] |  | 6.78 | 6.96 |  |
| KGASLDAGWGSPRWTTTRMTSASAGRSTRA [CS7414] |  | 6.71 | 6.99 | Solubility in DMSO/D5W/Succinate [1]: Y |
| H-AHRQGEKQHLLPVFSRLALRLPWRHSVQL-OH [CS6941] |  | 6.49 | 6.78 |  |
| H-LLTDRNTSGTTFTLLGVSDYPELQVPIPQAGLG-OH [CS7408] |  | 6.31 | 6.75 | solubility [1]: > 2000 µg/mL; solubility [1, 5]: > 2000 µg/mL |
| H-EEGLLPEVFGAGVPLALCPAVPSAAKPHRPRVL-OH [CS6933] | > 2000 |  |  |  |

| Compound | solubility [1, 4] [µg/mL] | pH of peptides in DMSO/D5W/5 mM S. Succinate spike [2] | pH of peptides in DMSO/D5W/5 mM Succinate and Hiltonol [2] | other results |
| --- | --- | --- | --- | --- |
| H-SYKKLPLLIFPSHRRAPLLSATGDRGFSV-OH [CS6936] |  |  |  | solubility [1, 7]: > 2000 µg/mL |
| H-YLLPKTAVVLRCPALRVRKP-OH [CS7418] |  | 6.76 | 6.96 |  |
| H-GTKALQLHSIAGRWPRMEPWVVESMSLGVP-OH [CS7415] |  | 6.61 | 6.81 |  |
| H-DSAVDKGHPNRSALSLTPGLRIGPSGLFLVFLA-OH [CS7411] |  | 6.53 | 6.94 |  |
| H-SYDSVIRELLQKPNVRVVVL-OH [CS7425] | > 2000 | 6.44 | 6.65 | solubility [1, 5]: < 2000 µg/mL; solubility [1, 6]: < 50000 µg/mL |
| H-IGALNPKRAAFFAEHYESWE-OH [CS7420] |  | 6.38 | 6.56 | solubility [1]: > 2000 µg/mL |
| H-LRVFIGNIAVNHAPVSLRPGLGLPPGAPPGTVP-OH [CS7412] |  | 6.61 | 6.96 | solubility [1]: > 2000 µg/mL |
| H-LLTDRNTSGTTFTLLGVSDYPELQVP-OH [CS7409] |  | 6.32 | 6.62 | solubility [1]: > 2000 µg/mL; solubility [1, 5]: > 2000 µg/mL |
| H-SGQPAPEETVLFLGLLHGLLLILRRLRGG-OH [CS6937] |  | 6.51 | 6.76 | solubility [1]: > 2000 µg/mL |
| H-VQLSIQDVIRRARLSTVPTAQRVALRSGWI-OH [CS7413] |  | 6.73 | 7.02 |  |
| H-LSVPFTCGVNFGDSIEDLEI-OH [CS7428] | < 2000 |  |  |  |
| H-LKDSNSWPPSNKRGFDTEDAHKSNATPVP-OH [CS6712] |  |  |  | Dissolution directly in D5W without using DMSO [3]: could be dissolved |
| H-PQLAGGGGSGAPGEHPLLPGGAPLPAGLF-OH [CS6716] | > 2000 |  |  |  |
| H-ALSLTPGLRIGPSGLFLVFLAESAVDKGHPNRS-OH [CS7410] |  | 6.46 | 6.88 |  |
| H-KKEKAEKLEKERQRHISKPLLGGPFSLTTHTGE-OH [CS6718] | > 2000 |  |  |  |
| H-KKNITNLSRLVVRPDTDAVY-OH [CS7431] |  | 6.45 | 6.69 |  |

— patent US20160310584A1, “FORMULATIONS FOR NEOPLASIA VACCINES” (THE BROAD INSTITUTE INC., priority 2013, published 2016)
